Reference: ChEMBL document CHEMBL3885861, “Open TG-GATES”

Organism: Rattus norvegicus
Experiment: Open TG-GATES - Regimen: Daily Repeat
Format: toxicity, organism-based, Sprague-Dawley
Set-up: regimen Daily Repeat, gender Male, age 6 weeks
Details: in vivo, po, 300 mg/kg, […], route gavage, dose level Middle; for KIDNEY_L / KIDNEY_R / KIDNEY_TOTAL: tissue Kidney; for LIVER: tissue Liver; for A/G / ALP / ALT / AST / BUN / CRE / Ca / Cl / DBIL / GLC / IP / K / LDH / Na / PL / RALB / TBIL / TC / TG / TP / gamma-GTP: tissue Plasma

For CN(C)[C@@H]1C(O)=C(C(N)=O)C(=O)[C@@]2(O)C(O)=C3C(=O)c4c(O)cccc4[C@@](C)(O)[C@H]3C[C@@H]12 [TETRACYCLINE], the Lym (tissue Blood, time 28 day) was 89.4%, the MCH (tissue Blood, time 28 day) was 19 pg and the MCHC (tissue Blood, time 28 day) was 33.6%. For the same compound, the MCV (tissue Blood, time 28 day) was 56.6 fL, the Mono (tissue Blood, time 28 day) was 3% and the Neu (tissue Blood, time 28 day) was 7%. The PT (tissue Blood, time 28 day) was 11.8 s, the Plat (tissue Blood, time 28 day) was 94.9 x10_4/uL and the RBC (tissue Blood, time 28 day) was 766.8 x10_4/ul. It also gave a Ret (tissue Blood, time 28 day) of 2.7%, a WBC (tissue Blood, time 28 day) of 147 x10_2/uL and a KIDNEY_L (time 7 day) of 1 g. The KIDNEY_R (time 7 day) was 1 g, the KIDNEY_TOTAL (time 7 day) was 2 g and the KIDNEY_L (time 14 day) was 1.1 g. For the same compound, the KIDNEY_R (time 14 day) was 1.1 g, the KIDNEY_TOTAL (time 14 day) was 2.2 g and the KIDNEY_L (time 28 day) was 1.3 g. For the same compound, the KIDNEY_R (time 28 day) was 1.2 g, the KIDNEY_TOTAL (time 28 day) was 2.5 g and the LIVER (time 7 day) was 10.8 g. For the same compound, the LIVER (time 14 day) was 11.8 g, the LIVER (time 28 day) was 13.2 g and the A/G (time 7 day) was 2. For the same compound, the ALP (time 7 day) was 1076.4 IU/L, the ALT (time 7 day) was 38.2 IU/L and the AST (time 7 day) was 69 IU/L. It also gave a BUN (time 7 day) of 20.2 mg/dL, a CRE (time 7 day) of 0.6 mg/dL and a Ca (time 7 day) of 11.2 mg/dL. It also gave a Cl (time 7 day) of 106.6 meq/L, a DBIL (time 7 day) of 0.004 mg/dL and a GLC (time 7 day) of 176 mg/dL. For the same compound, the IP (time 7 day) was 9.6 mg/dL, the K (time 7 day) was 5.5 meq/L and the LDH (time 7 day) was 142 IU/L. The Na (time 7 day) was 140.4 meq/L, the PL (time 7 day) was 157.6 mg/dL and the RALB (time 7 day) was 3.9 g/dL. It also gave a TBIL (time 7 day) of 0.3 mg/dL, a TC (time 7 day) of 82.6 mg/dL and a TG (time 7 day) of 87.6 mg/dL. The TP (time 7 day) was 5.9 g/dL, the gamma-GTP (time 7 day) was 1 IU/L and the A/G (time 14 day) was 2. It also gave an ALP (time 14 day) of 1009.2 IU/L, an ALT (time 14 day) of 36.8 IU/L and an AST (time 14 day) of 61.6 IU/L. It also gave a BUN (time 14 day) of 20.8 mg/dL, a CRE (time 14 day) of 0.5 mg/dL and a Ca (time 14 day) of 11.1 mg/dL. It also gave a Cl (time 14 day) of 103.8 meq/L, a DBIL (time 14 day) of 0.006 mg/dL and a GLC (time 14 day) of 178.2 mg/dL. The IP (time 14 day) was 8.6 mg/dL, the K (time 14 day) was 4.8 meq/L and the LDH (time 14 day) was 88.6 IU/L. The Na (time 14 day) was 142.4 meq/L, the PL (time 14 day) was 157 mg/dL and the RALB (time 14 day) was 3.9 g/dL. It also gave a TBIL (time 14 day) of 0.3 mg/dL, a TC (time 14 day) of 72.4 mg/dL and a TG (time 14 day) of 111.4 mg/dL. The TP (time 14 day) was 6 g/dL, the gamma-GTP (time 14 day) was 1.2 IU/L and the A/G (time 28 day) was 1.8. It also gave an ALP (time 28 day) of 813.4 IU/L, an ALT (time 28 day) of 29 IU/L and an AST (time 28 day) of 62.4 IU/L. For the same compound, the BUN (time 28 day) was 19.4 mg/dL, the CRE (time 28 day) was 0.6 mg/dL and the Ca (time 28 day) was 10.9 mg/dL. It also gave a Cl (time 28 day) of 107 meq/L, a DBIL (time 28 day) of 0.026 mg/dL and a GLC (time 28 day) of 173.2 mg/dL. It also gave an IP (time 28 day) of 7.4 mg/dL, a K (time 28 day) of 4.2 meq/L and an LDH (time 28 day) of 73.8 IU/L. For the same compound, the Na (time 28 day) was 141 meq/L, the PL (time 28 day) was 146 mg/dL and the RALB (time 28 day) was 3.8 g/dL. The TBIL (time 28 day) was 0.3 mg/dL, the TC (time 28 day) was 75.2 mg/dL and the TG (time 28 day) was 127 mg/dL. For the same compound, the TP (time 28 day) was 6 g/dL and the gamma-GTP (time 28 day) was 1 IU/L.
